Structures can show the parent of a compound that is named as a salt.
Columns and labels:
SRC = SRC (Homo sapiens, UniProt P12931); assay: Kinase-Lumi luminescent kinase assay; also in vitro kinase assay with recombinant SRC and STAT3, bead pull-down of recombinant protein, CETSA in AGS and HGC27 cells; assay type: biochemical
JAK2 = JAK2 (Homo sapiens, UniProt O60674); assay: Kinase-Lumi luminescent kinase assay; also in vitro kinase assay with recombinant JAK2 and STAT3, bead pull-down of recombinant protein, CETSA in AGS and HGC27 cells; assay type: biochemical
Sequence of JAK2 (O60674 whole entry): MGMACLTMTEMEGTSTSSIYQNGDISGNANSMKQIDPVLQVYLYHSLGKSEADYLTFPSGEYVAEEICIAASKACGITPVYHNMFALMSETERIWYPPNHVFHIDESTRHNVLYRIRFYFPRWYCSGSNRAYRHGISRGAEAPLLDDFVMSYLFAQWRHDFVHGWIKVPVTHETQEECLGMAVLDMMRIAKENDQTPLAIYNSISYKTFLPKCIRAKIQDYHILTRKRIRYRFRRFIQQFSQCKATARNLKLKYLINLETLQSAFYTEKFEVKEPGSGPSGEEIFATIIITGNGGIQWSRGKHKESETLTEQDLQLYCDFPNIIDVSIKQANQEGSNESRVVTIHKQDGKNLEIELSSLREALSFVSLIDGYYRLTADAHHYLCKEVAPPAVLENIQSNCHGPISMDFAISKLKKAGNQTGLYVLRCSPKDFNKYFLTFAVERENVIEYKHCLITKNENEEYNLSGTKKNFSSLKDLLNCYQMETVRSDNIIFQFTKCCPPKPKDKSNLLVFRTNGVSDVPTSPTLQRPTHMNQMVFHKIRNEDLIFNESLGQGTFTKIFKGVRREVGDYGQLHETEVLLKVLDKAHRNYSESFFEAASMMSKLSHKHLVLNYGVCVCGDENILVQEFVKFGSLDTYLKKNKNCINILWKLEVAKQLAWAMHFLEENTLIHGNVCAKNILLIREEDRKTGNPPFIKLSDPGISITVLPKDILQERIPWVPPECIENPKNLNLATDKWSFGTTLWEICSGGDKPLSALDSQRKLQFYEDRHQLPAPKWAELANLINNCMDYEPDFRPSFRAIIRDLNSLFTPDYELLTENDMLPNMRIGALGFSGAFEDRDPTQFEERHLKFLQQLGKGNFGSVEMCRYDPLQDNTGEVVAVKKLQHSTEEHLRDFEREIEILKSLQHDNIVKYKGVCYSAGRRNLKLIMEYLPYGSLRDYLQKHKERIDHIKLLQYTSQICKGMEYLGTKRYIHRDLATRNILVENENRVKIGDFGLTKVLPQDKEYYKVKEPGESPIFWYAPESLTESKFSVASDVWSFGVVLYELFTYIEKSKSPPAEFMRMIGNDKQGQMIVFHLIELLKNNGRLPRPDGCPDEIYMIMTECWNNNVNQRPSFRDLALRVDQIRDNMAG

Sequence of SRC (P12931 2-536): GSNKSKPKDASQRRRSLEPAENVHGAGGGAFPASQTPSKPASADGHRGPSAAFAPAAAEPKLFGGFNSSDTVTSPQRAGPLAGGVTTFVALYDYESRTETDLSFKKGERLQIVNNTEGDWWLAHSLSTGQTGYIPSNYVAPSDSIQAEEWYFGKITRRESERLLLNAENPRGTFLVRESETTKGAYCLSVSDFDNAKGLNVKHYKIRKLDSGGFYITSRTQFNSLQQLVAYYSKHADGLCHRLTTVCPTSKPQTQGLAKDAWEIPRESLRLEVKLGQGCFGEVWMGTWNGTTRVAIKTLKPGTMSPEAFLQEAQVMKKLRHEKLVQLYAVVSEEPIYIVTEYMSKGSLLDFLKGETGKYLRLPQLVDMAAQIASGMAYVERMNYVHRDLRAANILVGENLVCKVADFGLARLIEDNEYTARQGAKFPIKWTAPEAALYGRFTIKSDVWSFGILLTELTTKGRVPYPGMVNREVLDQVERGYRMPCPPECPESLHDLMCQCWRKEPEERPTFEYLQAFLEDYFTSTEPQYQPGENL

## Cc1ccc(Sc2ccccc2N2CCNCC2)c(C)c1 [vortioxetine hydrobromide]
SRC
  IC50: 6.5 µM
JAK2
  IC50: 8.53 µM
